Experimental data reported in patent publication US11104677B2, “Toll-like receptor 9 antagonists” (FRAUNHOFER-GESELLSCHAFT ZUR FÖRDERUNG DER ANGEWANDTEN …, priority 2015, dated 2021).

Each compound was assayed against T1, TLR9 (Homo sapiens, UniProt Q9NR96) (assay: cell-based reporter assay (NIH 3T3 reporter cell line expressing TLR9, NF-kB driven SEAP, stimulated with CpG ODN 2216)). Details: Table 5; first 30 candidates; ODN 2216 agonist; n≥3; read-out: IC50 in.
T1 construct: expressed in transfected cells; host or cells: NIH 3T3 fibroblasts (mouse), stably transfected, NF-kB driven SEAP reporter
T1 sequence (Q9NR96 26-1032): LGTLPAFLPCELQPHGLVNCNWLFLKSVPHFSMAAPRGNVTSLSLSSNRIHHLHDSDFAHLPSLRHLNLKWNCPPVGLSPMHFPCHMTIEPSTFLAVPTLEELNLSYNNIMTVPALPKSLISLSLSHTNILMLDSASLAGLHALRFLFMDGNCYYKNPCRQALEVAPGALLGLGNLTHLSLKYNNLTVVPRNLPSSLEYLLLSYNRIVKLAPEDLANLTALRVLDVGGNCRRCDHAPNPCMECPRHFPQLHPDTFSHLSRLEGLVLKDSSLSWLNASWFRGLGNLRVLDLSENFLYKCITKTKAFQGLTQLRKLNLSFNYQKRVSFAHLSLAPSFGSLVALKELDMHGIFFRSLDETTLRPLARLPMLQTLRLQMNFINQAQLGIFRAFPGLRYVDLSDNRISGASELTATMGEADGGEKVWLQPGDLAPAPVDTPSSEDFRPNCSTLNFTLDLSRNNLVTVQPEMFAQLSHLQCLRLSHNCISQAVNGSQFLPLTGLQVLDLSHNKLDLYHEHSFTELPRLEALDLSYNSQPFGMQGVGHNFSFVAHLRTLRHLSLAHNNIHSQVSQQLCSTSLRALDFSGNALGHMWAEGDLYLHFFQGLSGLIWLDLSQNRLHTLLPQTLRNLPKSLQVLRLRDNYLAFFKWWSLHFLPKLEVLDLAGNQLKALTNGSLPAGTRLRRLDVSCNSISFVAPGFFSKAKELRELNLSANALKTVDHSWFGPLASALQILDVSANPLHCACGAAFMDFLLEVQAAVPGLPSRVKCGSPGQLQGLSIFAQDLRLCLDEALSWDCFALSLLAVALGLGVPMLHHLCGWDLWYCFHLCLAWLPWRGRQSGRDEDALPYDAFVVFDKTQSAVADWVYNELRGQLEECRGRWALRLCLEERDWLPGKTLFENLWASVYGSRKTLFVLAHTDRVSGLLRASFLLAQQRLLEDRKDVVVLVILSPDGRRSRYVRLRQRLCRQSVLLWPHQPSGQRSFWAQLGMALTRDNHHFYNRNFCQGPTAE
Protocol: In context with the present invention, the ‘IC50 value’ is the half maximum inhibitory concentration which is a measure of the effectiveness of a substance inhibiting the function of the TLR9. The IC50 value can be determined by a functional antagonist assay or a competition binding assay. Preferably, the IC50 value is determined by the cell-based reporter assay in section 3, below, of the examples.
A cell based test-system that allows PAMPs to be identified and differentiated via pattern recognition receptors (PRRs) in a reporter gene assay was used (DE 10 2006 031 483, EP 2 041 172). For this assay human PRRs and co-receptors were stably transfected and expressed in NIH 3T3 fibroblasts. This cell line expresses no other PRRs and contains a reporter gene which is activated by PRR-activation. The induction of receptor complexes by their ligands leads, after a signalling cascade, to an activation of transcription factor NF-kB, which regulates the expression of an additional integrated reporter gene, a secreted alkaline phosphatase (SEAP) (Burger-Kentischer, A.; Abele, I. S.; Finkelmeier, D.; Wiesmüller, K.-H.; Rupp, S., A new cell-based innate immune receptor assay for the examination of receptor activity, ligand specificity, signalling pathways and the detection of pyrogens. J. Immunol. Methods 2010, 358 (1), 93-103).
This test system mimics elements of the innate human immune system and can selectively recognize a large number of PAMPs with high sensitivity. Consequently, the PRR-specific cell-based high-throughput feature of the reporter cell lines will provide a fast, flexible and convenient means for lead compound screening in the pharmaceutical drug development fields. For the in vitro screening of the top candidates identified at IDR, the Fraunhofer IGB used this cell-based reporter system to identify TLR9 antagonists in order to determine their activity as well their biocompatibility. Within a first step the NIH3T3 cell line expressing TLR9 was used to measure the inhibitory effect of the TLR9 antagonists.
For the experiment the reporter cell line expressing TL9 was plated in 96-well cell culture plates at a density of 0.3×10^5 cells in DMEM media supplemented with 10% FCS (Invitrogen), 1% L-glutamine (200 mM Invitrogen) and 1% Penicillin-Streptomycin (PenStrep: 100×, Invitrogen). The cells were incubated for 16 h to grow adherent monolayers at 37° C. in a 5% saturated CO2 humidified atmosphere. After overnight incubation, the media was removed and replaced by DMEM medium supplemented with 1% PenStrep, 1% L-glutamine and 0.5% FCS. The media change is important to avoid a unspecific background signal, caused by active remaining phosphatases present in the FCS. The cells are then stimulated with a specific ligand non-methylated CpG ODN 2216 agonist (Invivogen) and the potential antagonists using different concentrations, namely within a range of concentrations of the potential antagonists starting with 0.025 μM (for the antagonist with the highest activity) up to 14 mM for the antagonists with lowest activities.
The ODN ligand has the sequence 5′-ggGGGACGA:TCGTCgggggg-3′ (SEQ ID No. 1). Those represented by capital letters are phosphodiesters, and those in small letters are phosphorothioate. The Palindrome is underlined.
The cells were again incubated in a humidified atmosphere for 16h leading to the expression or reduced expression of SEAP and its secretion into the media. Binding of the antagonist leads to a block of the TLR9, resulting in no or in a reduced expression of the reporter gene (SEAP). Therefore, 50 μl supernatant were taken from the cells and transferred into a 96-well PS microplate flat bottom (Greiner BIO-ONE). The enzyme substrate reaction was initiated by adding 50 μl of the specific substrate. SEAP catalyses the hydrolysis of pNPP to the final product para-nitrophenol (yellow), which can be detected in a photometric analysis using an UV-VIS reader at 405 nm. […]

Row | SMILES | IC50 [µM]
1 | COc1ccc(/N=C/c2ccc3ncccc3c2)cc1 [T0501-0693, O(C)c1ccc(\N═C\c2cc3c(nccc3)cc2)cc1] | 15.7
2 | C(=C\c1ccc2ccccc2n1)/c1ccc(N2CCOCC2)cc1 [T6549007, O1CCN(CC1)c1ccc(cc1)\C═C\c1nc2c(cc1)cccc2] | 4320
3 | c1ccc(N2CCN(c3ccc4ccccc4n3)CC2)cc1 [T6495030, n1c2c(ccc1N1CCN(CC1)c1ccccc1)cccc2] | 220
4 | COc1ccc(CCNc2ncnc3c2oc2ccccc23)cc1OC [T5666774, o1c2c(ncnc2NCCc2cc(OC)c(OC)cc2)c2c1cccc2] | 30.3
